# In patent US11739101B2, “Bifunctional degraders of hematopoietic progenitor kinase and therapeutic uses thereof” (Nurix Therapeutics, Inc., priority 2020, dated 2023):
# Target: T1, HPK1 (Homo sapiens, UniProt Q92918)
# T1 construct: A HiBiT tag was introduced by CRISPR on the N terminus of HPK1 in Jurkat cells; host or cells: Jurkat (ATCC TIB-152), monoclonal CRISPR HiBiT knock-in line
# Assay: HPK1 Cellular HiBiT Degradation Assay
# Format: cell-based
# Conditions: HiBiT-tagged HPK1 Jurkat cells, 24 hours, 10 uM to 0.1 nM; Dmax = 100 minus lowest % HPK1 remaining vs DMSO vehicle
# Procedure, shortened: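 Dmax is derived from four-parameter curves of % HPK1 remaining, as 100 minus the lowest value, normalized to DMSO-treated cells with parental Jurkat background subtracted. HiBiT-HPK1 knock-in Jurkat cells got compound for 24 hours (final 10 uM to 0.1 nM, 11 points) before lytic HiBiT luminescence. Cytotoxicity was checked on parallel CellTiter-Glo plates.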
# T1 sequence (Q92918 whole entry): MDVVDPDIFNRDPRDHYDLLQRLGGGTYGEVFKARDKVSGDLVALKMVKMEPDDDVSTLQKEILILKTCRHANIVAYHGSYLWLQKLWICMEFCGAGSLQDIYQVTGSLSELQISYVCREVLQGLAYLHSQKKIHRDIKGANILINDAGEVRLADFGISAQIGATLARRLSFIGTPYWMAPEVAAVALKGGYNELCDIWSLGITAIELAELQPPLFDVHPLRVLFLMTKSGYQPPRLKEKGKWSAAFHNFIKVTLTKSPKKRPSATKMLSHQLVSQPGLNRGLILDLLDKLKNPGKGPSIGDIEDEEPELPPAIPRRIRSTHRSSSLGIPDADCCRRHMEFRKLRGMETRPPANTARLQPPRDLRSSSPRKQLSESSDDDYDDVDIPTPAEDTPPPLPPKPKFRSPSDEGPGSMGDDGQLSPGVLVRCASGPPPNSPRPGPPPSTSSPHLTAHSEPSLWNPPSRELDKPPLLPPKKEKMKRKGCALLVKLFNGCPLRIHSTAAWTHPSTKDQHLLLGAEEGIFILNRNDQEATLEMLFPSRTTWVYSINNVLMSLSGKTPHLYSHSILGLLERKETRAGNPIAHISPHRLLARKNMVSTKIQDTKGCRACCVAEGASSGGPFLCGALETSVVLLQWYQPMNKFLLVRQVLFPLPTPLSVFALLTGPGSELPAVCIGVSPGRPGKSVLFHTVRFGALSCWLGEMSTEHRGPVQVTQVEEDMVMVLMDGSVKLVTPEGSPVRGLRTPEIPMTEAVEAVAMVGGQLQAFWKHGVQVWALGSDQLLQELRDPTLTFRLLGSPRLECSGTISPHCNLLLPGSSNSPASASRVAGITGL
row,SMILES,Dmax [%]
1,"Cc1cc(F)c(Nc2nc(-c3ccc4c(c3)N([C@H]3C[C@@H](N5CCCCC5)C3)C(=O)C43CCN(C(=O)c4ccc(OC5CCN(c6cccc7c6C(=O)N(C6CCC(=O)NC6=O)C7=O)CC5)cc4)CC3)cc3ncn(C(C)C)c23)cc1C(=O)NC(C)C (some centres unmarked) [Example 63, 5-{[6-(1′-{4-[(1-{2-[2,6-dioxopiperidin-3-yl]-1,3-dioxo-2,3-dihydro-1H-isoindol-4-yl}piperidin-4-yl)oxy]benzoyl}-2-oxo-1-[(1s,3s)-3-(piperidin-1-yl)cyclobutyl]-1,2-dihydrospiro[indole-3,4′-piperidin]-6-yl)-3-(propan-2-yl)-3H-imidazo[4,5-c]pyridin-4-yl]amino}-4-fluoro-2-methyl-N-(propan-2-yl)benzamide]",> 65
2,"Cc1cc(F)c(Nc2nc(-c3ccc4c(c3)N([C@H]3C[C@@H](N5CCCCC5)C3)C(=O)C43CCN(C(=O)C4CCN(C(=O)C[C@@H]5CCCN(c6cccc7c6C(=O)N(C6CCC(=O)NC6=O)C7=O)C5)C4)CC3)cc3ncn(C(C)C)c23)cc1C(=O)NC(C)C (stereo partly drawn) [Example 32, 5-({6-[1′-(1-{2-[(3S)-1-{2-[2,6-dioxopiperidin-3-yl]-1,3-dioxo-2,3-dihydro-1H-isoindol-4-yl}piperidin-3-yl]acetyl}pyrrolidine-3-carbonyl)-2-oxo-1-[(1s,3s)-3-(piperidin-1-yl)cyclobutyl]-1,2-dihydrospiro[indole-3,4′-piperidin]-6-yl]-3-(propan-2-yl)-3H-imidazo[4,5-c]pyridin-4-yl}amino)-4-fluoro-2-methyl-N-(propan-2-yl)benzamide]",< 45
3,"Cc1cc(F)c(Nc2nc(-c3ccc4c(c3)N([C@H]3C[C@@H](N5CCCCC5)C3)C(=O)C43CCN(C(=O)CCCCCCCC(=O)N[C@H](C(=O)N4C[C@H](O)C[C@H]4C(=O)N[C@@H](C)c4ccc(-c5scnc5C)cc4)C(C)(C)C)CC3)cc3ncn(C(C)C)c23)cc1C(=O)NC(C)C [Example 10, (2S,4R)-1-((S)-2-(9-(6-(4-((2-fluoro-5-(isopropylcarbamoyl)-4-methylphenyl)amino)-3-isopropyl-3H-imidazo[4,5-c]pyridin-6-yl)-2-oxo-1-((1s,3s)-3-(piperidin-1-yl)cyclobutyl)spiro[indoline-3,4′-piperidin]-1′-yl)-9-oxononanamido)-3,3-dimethylbutanoyl)-4-hydroxy-N—((S)-1-(4-(4-methylthiazol-5-yl)phenyl)ethyl)pyrrolidine-2-carboxamide]",> 65
4,"Cc1cc(F)c(Nc2nc(-c3ccc4c(c3)N([C@H]3C[C@@H](N5CCCCC5)C3)C(=O)C43CCN(C(=O)CN4CCC(CCCCC(=O)N[C@H](C(=O)N5C[C@H](O)C[C@H]5C(=O)N[C@@H](C)c5ccc(-c6scnc6C)cc5)C(C)(C)C)CC4)CC3)cc3ncn(C(C)C)c23)cc1C(=O)NC(C)C [Example 19, (2S,4R)-1-((S)-2-(5-(1-(2-(6-(4-((2-fluoro-5-(isopropylcarbamoyl)-4-methylphenyl)amino)-3-isopropyl-3H-imidazo[4,5-c]pyridin-6-yl)-2-oxo-1-((1s,3s)-3-(piperidin-1-yl)cyclobutyl)spiro[indoline-3,4′-piperidin]-1′-yl)-2-oxoethyl)piperidin-4-yl)pentanamido)-3,3-dimethylbutanoyl)-4-hydroxy-N—((S)-1-(4-(4-methylthiazol-5-yl)phenyl)ethyl)pyrrolidine-2-carboxamide]",< 45
5,"Cc1cc(F)c(Nc2nc(-c3ccc4c(c3)N([C@H]3C[C@@H](N5CCCCC5)C3)C(=O)C43CCN(C(=O)[C@H]4CC[C@@H](C(=O)N5CCC(N(C)c6cccc7c6C(=O)N(C6CCC(=O)NC6=O)C7=O)CC5)CC4)CC3)cc3ncn(C(C)C)c23)cc1C(=O)NC(C)C (stereo partly drawn) [Example 62, 4-fluoro-2-methyl-5-[(6-{2-oxo-1-[(1s,3s)-3-(piperidin-1-yl)cyclobutyl]-1′-[(1S,4s)-4-(4-{[2-(2,6-dioxopiperidin-3-yl)-1,3-dioxo-2,3-dihydro-1H-isoindol-4-yl](methyl)amino}piperidine-1-carbonyl)cyclohexanecarbonyl]-1,2-dihydrospiro[indole-3,4′-piperidin]-6-yl}-3-(propan-2-yl)-3H-imidazo[4,5-c]pyridin-4-yl)amino]-N-(propan-2-yl)benzamide]",45 to 65
6,"Cc1cc(F)c(Nc2nc(-c3ccc4c(c3)N([C@H]3C[C@@H](N5CCCCC5)C3)C(=O)C43CCN(C(=O)Cc4ccc(N5CCN(CC(=O)N[C@H](C(=O)N6C[C@H](O)C[C@H]6C(=O)N[C@@H](C)c6ccc(-c7scnc7C)cc6)C(C)(C)C)CC5)cc4)CC3)cc3ncn(C(C)C)c23)cc1C(=O)NC(C)C [Example 47, (2S,4R)-1-[(2S)-2-(2-{4-[4-(2-{6-[4-({2-fluoro-4-methyl-5-[(propan-2-yl)carbamoyl]phenyl}amino)-3-(propan-2-yl)-3H-imidazo[4,5-c]pyridin-6-yl]-2-oxo-1-[(1s,3s)-3-(piperidin-1-yl)cyclobutyl]-1,2-dihydrospiro[indole-3,4′-piperidin]-1′-yl}-2-oxoethyl)phenyl]piperazin-1-yl}acetamido)-3,3-dimethylbutanoyl]-4-hydroxy-N-[(1S)-1-[4-(4-methyl-1,3-thiazol-5-yl)phenyl]ethyl]pyrrolidine-2-carboxamide]",> 65
7,"Cc1cc(F)c(Nc2nc(-c3ccc4c(c3)N([C@H]3C[C@@H](N5CCCCC5)C3)C(=O)C43CCN(C(=O)C4CCN(C(=O)C5CCN(c6cccc7c6C(=O)N(C6CCC(=O)NC6=O)C7=O)CC5)C4)CC3)cc3ncn(C(C)C)c23)cc1C(=O)NC(C)C (mixture of isomers) [Example 25, 5-[(6-{1′-[1-(1-{2-[(3RS)-2,6-dioxopiperidin-3-yl]-1,3-dioxo-2,3-dihydro-1H-isoindol-4-yl}piperidine-4-carbonyl)pyrrolidine-3-carbonyl]-2-oxo-1-[(1s,3s)-3-(piperidin-1-yl)cyclobutyl]-1,2-dihydrospiro[indole-3,4′-piperidin]-6-yl}-3-(propan-2-yl)-3H-imidazo[4,5-c]pyridin-4-yl)amino]-4-fluoro-2-methyl-N-(propan-2-yl)benzamide]",45 to 65

# Next, values leading:
row,Dmax [%],SMILES
1,45 to 65,"Cc1cc(F)c(Nc2nc(-c3ccc4c(c3)N([C@H]3C[C@@H](N5CCCCC5)C3)C(=O)C43CCN(C(=O)C4CCN(C(=O)N5CCC(Nc6cccc7c6C(=O)N(C6CCC(=O)NC6=O)C7=O)CC5)CC4)CC3)cc3ncn(C(C)C)c23)cc1C(=O)NC(C)C (some centres unmarked) [Example 68, 5-{[6-(1′-{1-[4-({2-[2,6-dioxopiperidin-3-yl]-1,3-dioxo-2,3-dihydro-1H-isoindol-4-yl}amino)piperidine-1-carbonyl]piperidine-4-carbonyl}-2-oxo-1-[(1s,3s)-3-(piperidin-1-yl)cyclobutyl]-1,2-dihydrospiro[indole-3,4′-piperidin]-6-yl)-3-(propan-2-yl)-3H-imidazo[4,5-c]pyridin-4-yl]amino}-4-fluoro-2-methyl-N-(propan-2-yl)benzamide]"
2,> 65,"Cc1cc(F)c(Nc2nc(-c3ccc4c(c3)N([C@H]3C[C@@H](N5CCCCC5)C3)C(=O)C43CCN(C(=O)[C@@H]4CCN(C(=O)[C@H]5CC[C@H](N(C)c6cccc7c6C(=O)N(C6CCC(=O)NC6=O)C7=O)CC5)C4)CC3)cc3ncn(C(C)C)c23)cc1C(=O)NC(C)C (stereo partly drawn) [Example 67, 4-fluoro-2-methyl-5-[(6-{2-oxo-1′-[(3R)-1-[(R,4R)-4-({2-[2,6-dioxopiperidin-3-yl]-1,3-dioxo-2,3-dihydro-1H-isoindol-4-yl}(Methyl)amino)cyclohexanecarbonyl]pyrrolidine-3-carbonyl]-1-[(1s,3s)-3-(piperidin-1-yl)cyclobutyl]-1,2-dihydrospiro[indole-3,4′-piperidin]-6-yl}-3-(propan-2-yl)-3H-imidazo[4,5-c]pyridin-4-yl)amino]-N-(propan-2-yl)benzamide]"
3,45 to 65,"Cc1cc(F)c(Nc2nc(-c3ccc4c(c3)N([C@H]3C[C@@H](N5CCCCC5)C3)C(=O)C43CCN(C(=O)[C@@H]4CCN(C(=O)[C@H]5CC[C@H](Nc6ccc7c(c6)C(=O)N(C6CCC(=O)NC6=O)C7=O)CC5)C4)CC3)cc3ncn(C(C)C)c23)cc1C(=O)NC(C)C (stereo partly drawn) [Example 81, 5-((6-(1′-((3R)-1-((1R,4R)-4-((2-(2,6-dioxopiperidin-3-yl)-1,3-dioxoisoindolin-5-yl)amino)cyclohexane-1-carbonyl)pyrrolidine-3-carbonyl)-2-oxo-1-((1s,3s)-3-(piperidin-1-yl)cyclobutyl)spiro[indoline-3,4′-piperidin]-6-yl)-3-isopropyl-3H-imidazo[4,5-c]pyridin-4-yl)amino)-4-fluoro-N-isopropyl-2-methylbenzamide]"
4,45 to 65,"Cc1cc(F)c(Nc2nc(-c3ccc4c(c3)N([C@H]3C[C@@H](N5CCCCC5)C3)C(=O)C43CCN(C(=O)CN4CCC(c5ccc(C(=O)NCCNc6cccc7c6C(=O)N(C6CCC(=O)NC6=O)C7=O)cc5)CC4)CC3)cc3ncn(C(C)C)c23)cc1C(=O)NC(C)C (some centres unmarked) [Example 90, 5-[(6-{1′-[2-(4-{4-[(2-{[2-(2,6-dioxopiperidin-3-yl)-1,3-dioxoisoindol-4-yl]amino}ethyl)carbamoyl]phenyl}piperidin-1-yl)acetyl]-2-oxo-1-[(1s,3s)-3-(piperidin-1-yl)cyclobutyl]spiro[indole-3,4′-piperidin]-6-yl}-3-isopropylimidazo[4,5-c]pyridin-4-yl)amino]-4-fluoro-N-isopropyl-2-methylbenzamide]"
